1 compound from patent US20090221095A1, “Colorimetric Screening of DNA Binding/Intercalating Agents with Gold Nanoparticle Probes” (NORTHWESTERN UNIVERSITY, priority 2005, published 2009) can be followed below.

For assay [1], the system named is triplex DNA (DNA-1, DNA-2, DNA-3). Put plainly: UV melting (260 nm) of unmodified triplex DNA-1, DNA-2, DNA-3 (no nanoparticles). The assay is classed as binding. The settings on record: solution-phase unmodified DNA, 1 μM each strand, 6 μM binder, 0.5 M NaCl 10 mM PBS. How it is done: To compare the results from the previous examples with more traditional screening techniques, all eight intercalators were screened, plus a control, by monitoring UV absorbance melting curves (260 nm) of unmodified DNA-1, DNA-2, and DNA-3 (1 μM each), with each intercalator (10 μM), (DNA-1; 3′ TTCTTCTTTTTT CT-5′. DNA-2: 5′-TTCTTCTTTTTTCT-3′, DNA-3: 5′-AAGAAGAAAAAA-3′). (FIG. 2B). The melting experiment performed in the presence of BePl has two melting transitions. The first Tm at 34.8° C. is associated with the denaturation of the triplex structure and the second Tm at 61.4° C. is representative of the corresponding duplex.
To determine the Tm of the duplex DNA in the presence of DNA binders, 2 μM duplex DNA and 5 μM DNA binder were combined in 0.3 M NaCl 10 mM PBS. To determine the Tm of the triplex DNA in the presence of DNA binders, 1 μM of each strand and 6 μM of each DNA binder were combined in 0.5 M NaCl 10 mM PBS. UV-vis melting curves were measured on a CARRY 500 spectrophotometer equipped with a circulating bath. The melting process was monitored by measuring the change in extinction at 260 nm. The solutions were stirred continuously with a magnetic stir bar as the solution temperature was increased at a rate of 0.5° C./min. The first derivative generated from the melting curves was used to determine the Tm.
A melting transition associated with the triple helix was found only for experiments performed in the presence of BePI (34.8° C.) and CORA (17.1° C.) where BePI is determined to be the stronger binder. This is in agreement with the results determined by the chip-based scanometric method described above.

For assay [2], the system named is triplex DNA on chip surface. Put plainly: Chip-based scanometric detection of triplex DNA binders (silver enhancement). The class given is binding. The settings on record: 0.3 M NaCl, binder 5 μM, DNA-3 150 nM. How it is done:
For scanometric detection of duplex or triplex DNA binding molecules, Au nanoparticles (1 nM) and DNA binding molecules (5 μM) in 10 mM PBS buffer of varying NaCl concentrations were added to the microarray slide under hybridization wells (Nanosphere, Inc.). For detection of triplex binders, 150 nM DNA-3 was added. DNA hybridization proceeded for 30 min (for duplex DNA binders) or 1 h (for triplex DNA binders) in a humidity chamber. After hybridization, the slides were washed three times with 0.5 M NaNO3 containing 0.02% Tween 20. The arrays were dried using a benchtop spinner. Silver enhancement solution (Nanosphere, Inc.) was added for Au-NP signal amplification (1 mL total volume/array, 1.5-min development time for duplex DNA binding molecules and 3 min for triplex binding molecules). The reaction was terminated by washing the slides with NANOpure® water and spin-drying. Light-scattering images from the silver-enhanced chips were recorded using the high-resolution Verigene ID system (Nanosphere, Inc.).
Capture strands of synthetic oligonucleotides are patterned on a glass chip using a microarrayer. The DNA chip is then exposed to a solution containing three components: 1) complementary DNA (no nanoparticles), 2) DNA functionalized Au nanoparticles (DNA is non-complementary to the arrayed DNA) and 3) DNA binders, Scheme 4. The complementary solution-phase DNA, called DNA-3 in Scheme 2, hybridizes to the DNA on the chip surface and forms a duplex. The Au nanoparticle-bound DNA has the correct sequence to form a triplex with the surface bound duplex through sequence-specific Hoogsteen, or reverse Hoogsteen, base pairing. The triplex structure is relatively unstable at room temperature and will only form in the presence of triplex DNA binding molecules. The presence of the triplex DNA binding molecules increase the stability of the triplex, immobilizing the Au nanoparticles on the chip surface. The chip was then exposed to silver enhancement solution for further signal enhancement and then imaged using a Verigene ID scanner.
The assay was performed in the presence of two triplex binders, coralyn (CORA) and benzo[e]pyridoindole (BePI), seven duplex DNA binders, 4′,6-diamidino-2-phenylindole (DAPI), ellipticine (EIPT), amsacrine (AMSA), daunorubicin (DNR), anthraquinone-2-carboxylic acid (AQ2A), ethidium bromide (EB), and 9-aminoacridine (9-AA))., and one control (no DNA-3). Similar to the DNA duplex, the formation of the DNA triplex is a reversible process which is affected by both temperature and salt concentration. However, compared to the duplex, the stability of the triplex is much more sensitive to salt concentration. Therefore, to determine the relative binding strength of the triplex DNA binders, the assay was performed at varying salt concentrations, FIG. 7. At 0.3 M NaCl, both the strong (BePI) and weaker (CORA) triplex binders show signal.

Molecules are shown by their SMILES.

Take `COc1cc2cc3c4cc(OC)c(OC)cc4cc[n+]3c(C)c2cc1OC` [CORA, coralyn]: the “Tm 2-1” value in assay [1] (duplex melting transition) was determined as 60.1 °C. Besides, the Tm3-2 in assay [1] (triple helix melting transition, ND read as not detected) was 17.1 °C. The scanometric signal entry in assay [2] is listed as “show signal”.
